Experimental data reported in PubChem BioAssay AID1259407 (Chemical Carcinogenesis Research Information System (CCRIS), 2018).
Calls of active or inactive are those of the source. No rule for the calls is given here.

System: CCRIS mutagenicity, Ames/micronucleus/aberration tests
Experiment: CCRIS mutagenicity studies
[1] = Test System: AMES SALMONELLA TYPHIMURIUM, Strain/Indicator: TA98, Metabolic Activation: NONE, Method: PREINCUBATION
[2] = Test System: AMES SALMONELLA TYPHIMURIUM, Strain/Indicator: TA100, Metabolic Activation: NONE, Method: PREINCUBATION
[3] = Test System: AMES SALMONELLA TYPHIMURIUM, Strain/Indicator: TA1535, Metabolic Activation: NONE, Method: PREINCUBATION
[4] = Test System: AMES SALMONELLA TYPHIMURIUM, Strain/Indicator: TA1537, Metabolic Activation: NONE, Method: PREINCUBATION
[5] = Test System: AMES SALMONELLA TYPHIMURIUM, Strain/Indicator: TA98, Metabolic Activation: NONE, Method: STANDARD PLATE
[6] = Test System: AMES SALMONELLA TYPHIMURIUM, Strain/Indicator: TA98, Metabolic Activation: RAT, LIVER, S-9, AROCLOR 1254, Method: STANDARD PLATE
[7] = Test System: AMES SALMONELLA TYPHIMURIUM, Strain/Indicator: TA100, Metabolic Activation: NONE, Method: STANDARD PLATE
[8] = Test System: AMES SALMONELLA TYPHIMURIUM, Strain/Indicator: TA100, Metabolic Activation: RAT, LIVER, S-9, AROCLOR 1254, Method: STANDARD PLATE

With Nc1cc(Cl)ccc1O the mutagenic call (End Point: In vitro chromosomal aberrations, Test System: Chinese hamster lung (CHL/IU) cells, Metabolic Activation: Rat, Liver, S9, Phenobarbital and 5,6-benzoflavone) was “active; positive (structural changes and ploidy). structural changes not dose related”, the mutagenic call (Test System: AMES SALMONELLA TYPHIMURIUM, Strain/Indicator: TA97, Metabolic Activation: HAMSTER, LIVER, S-9, AROCLOR 1254 (10%), Method: PREINCUBATION) was “inactive; negative” and the mutagenic call (Test System: AMES SALMONELLA TYPHIMURIUM, Strain/Indicator: TA97, Metabolic Activation: HAMSTER, LIVER, S-9, AROCLOR 1254 (30%), Method: PREINCUBATION) was “inactive; negative”. For the same molecule, the mutagenic call (Test System: AMES SALMONELLA TYPHIMURIUM, Strain/Indicator: TA97, Metabolic Activation: NONE, Method: PREINCUBATION) was “inactive; negative”, the mutagenic call (Test System: AMES SALMONELLA TYPHIMURIUM, Strain/Indicator: TA97, Metabolic Activation: RAT, LIVER, S-9, AROCLOR 1254 (10%), Method: PREINCUBATION) was “inactive; negative” and the mutagenic call (Test System: AMES SALMONELLA TYPHIMURIUM, Strain/Indicator: TA97, Metabolic Activation: RAT, LIVER, S-9, AROCLOR 1254 (30%), Method: PREINCUBATION) was “inactive; negative”. The mutagenic call (Test System: AMES SALMONELLA TYPHIMURIUM, Strain/Indicator: TA98, Metabolic Activation: HAMSTER, LIVER, S-9, AROCLOR 1254 (10%), Method: PREINCUBATION) was “inactive; negative”, the mutagenic call [1] was “inactive; negative” and the mutagenic call (Test System: AMES SALMONELLA TYPHIMURIUM, Strain/Indicator: TA98, Metabolic Activation: RAT, LIVER, S-9, AROCLOR 1254 (10%), Method: PREINCUBATION) was “inactive; negative”. For the same molecule, the mutagenic call (Test System: AMES SALMONELLA TYPHIMURIUM, Strain/Indicator: TA98, Metabolic Activation: RAT, LIVER, S-9, PHENOBARBITAL AND BETA-NAPHTHOFLAVONE, Method: PREINCUBATION) was “inactive; negative”, the mutagenic call (Test System: AMES SALMONELLA TYPHIMURIUM, Strain/Indicator: TA100, Metabolic Activation: HAMSTER, LIVER, S-9, AROCLOR 1254 (10%), Method: PREINCUBATION) was “inactive; negative” and the mutagenic call [2] was “inactive; negative”. The mutagenic call (Test System: AMES SALMONELLA TYPHIMURIUM, Strain/Indicator: TA100, Metabolic Activation: RAT, LIVER, S-9, AROCLOR 1254 (10%), Method: PREINCUBATION) was “inactive; negative”, the mutagenic call (Test System: AMES SALMONELLA TYPHIMURIUM, Strain/Indicator: TA1535, Metabolic Activation: HAMSTER, LIVER, S-9, AROCLOR 1254 (5%), Method: PREINCUBATION) was “active; positive” and the mutagenic call (Test System: AMES SALMONELLA TYPHIMURIUM, Strain/Indicator: TA1535, Metabolic Activation: HAMSTER, LIVER, S-9, AROCLOR 1254 (10%), Method: PREINCUBATION) was “active; positive”. For the same molecule, the mutagenic call (Test System: AMES SALMONELLA TYPHIMURIUM, Strain/Indicator: TA1535, Metabolic Activation: HAMSTER, LIVER, S-9, AROCLOR 1254 (30%), Method: PREINCUBATION) was “active; positive”, the mutagenic call [3] was “inactive; negative” and the mutagenic call (Test System: AMES SALMONELLA TYPHIMURIUM, Strain/Indicator: TA1535, Metabolic Activation: RAT, LIVER, S-9, AROCLOR 1254 (5%), Method: PREINCUBATION) was “active; positive”. The mutagenic call (Test System: AMES SALMONELLA TYPHIMURIUM, Strain/Indicator: TA1535, Metabolic Activation: RAT, LIVER, S-9, AROCLOR 1254 (10%), Method: PREINCUBATION) was “active; positive”, the mutagenic call (Test System: AMES SALMONELLA TYPHIMURIUM, Strain/Indicator: TA1535, Metabolic Activation: RAT, LIVER, S-9, AROCLOR 1254 (30%), Method: PREINCUBATION) was “inactive; negative” and the mutagenic call (Test System: AMES SALMONELLA TYPHIMURIUM, Strain/Indicator: TA1535, Metabolic Activation: RAT, LIVER, S-9, PHENOBARBITAL AND BETA-NAPHTHOFLAVONE, Method: PREINCUBATION) was “inactive; negative”. For the same molecule, the mutagenic call [4] was “inactive; negative”, the mutagenic call (Test System: E. COLI, Strain/Indicator: WP2UVRA, Metabolic Activation: NONE, Method: PREINCUBATION) was “inactive; negative” and the mutagenic call (Test System: E. COLI, Strain/Indicator: WP2UVRA, Metabolic Activation: RAT, LIVER, S-9, PHENOBARBITAL AND BETA-NAPHTHOFLAVONE, Method: PREINCUBATION) was “inactive; negative”.
In the case of O=C1c2ccccc2C(=O)c2c1cc(O[C@@H]1O[C@H](CO[C@@H]3OC[C@@H](O)[C@H](O)[C@H]3O)[C@@H](O)[C@H](O)[C@H]1O)c(CO)c2O, the mutagenic call [1] is reported as “inactive; negative”, the mutagenic call (Test System: AMES SALMONELLA TYPHIMURIUM, Strain/Indicator: TA98, Metabolic Activation: RAT, LIVER, S-9, PCB, Method: PREINCUBATION) is reported as “inactive; negative” and the mutagenic call [2] is reported as “active; positive”. For the same molecule, the mutagenic call (Test System: AMES SALMONELLA TYPHIMURIUM, Strain/Indicator: TA100, Metabolic Activation: RAT, LIVER, S-9, PCB, Method: PREINCUBATION) was “inactive; negative” and the mutagenic call (Test System: UDS RODENT HEPATOCYTES, Strain/Indicator: THY INCORP, Metabolic Activation: NONE) was “active; positive”.
In the case of CC(=O)N(O)c1ccc(C)cc1, the mutagenic call [5] is reported as “inactive; negative”, the mutagenic call [6] is reported as “inactive; negative” and the mutagenic call [7] is reported as “inactive; negative”. For the same molecule, the mutagenic call [8] was “inactive; negative”.
In the case of CC(=O)N(C(C)=O)c1cc(N=Nc2ccc(C)cc2)ccc1C, the mutagenic call (Test System: AMES SALMONELLA TYPHIMURIUM, Strain/Indicator: TA98, Metabolic Activation: NONE, Method: SUSPENSION/PLATE) is reported as “inactive; negative”, the mutagenic call (Test System: AMES SALMONELLA TYPHIMURIUM, Strain/Indicator: TA98, Metabolic Activation: RAT, LIVER, S-9, PHENOBARBITAL AND 5,6-BENZOFLAVONE, Method: SUSPENSION/PLATE) is reported as “inactive; negative” and the mutagenic call (Test System: AMES SALMONELLA TYPHIMURIUM, Strain/Indicator: TA100, Metabolic Activation: NONE, Method: SUSPENSION/PLATE) is reported as “inactive; negative”. For the same molecule, the mutagenic call (Test System: AMES SALMONELLA TYPHIMURIUM, Strain/Indicator: TA100, Metabolic Activation: RAT, LIVER, S-9, PHENOBARBITAL AND 5,6-BENZOFLAVONE, Method: SUSPENSION/PLATE) was “inactive; negative”.
With COc1cc(N=Nc2ccccc2)ccc1N=Nc1c(S(=O)(=O)O)cc2ccc(N)cc2c1O the mutagenic call [5] was “inactive; negative”, the mutagenic call [6] was “active; positive” and the mutagenic call [7] was “inactive; negative”. The mutagenic call [8] was “active; positive”, the mutagenic call (Test System: AMES SALMONELLA TYPHIMURIUM, Strain/Indicator: TA1538, Metabolic Activation: NONE, Method: STANDARD PLATE) was “inactive; negative” and the mutagenic call (Test System: AMES SALMONELLA TYPHIMURIUM, Strain/Indicator: TA1538, Metabolic Activation: RAT, LIVER, S-9, AROCLOR 1254, Method: STANDARD PLATE) was “active; positive”.
CC(=O)c1cc(NC(=O)NC(C)(C)C)ccc1OCC(O)CNC(C)(C)C (stereo not drawn) was tested, and the mutagenic call [1] was “inactive; negative”, the mutagenic call (Test System: AMES SALMONELLA TYPHIMURIUM, Strain/Indicator: TA98, Metabolic Activation: RAT, LIVER, S-9, PHENOBARBITAL AND 5,6-BENZOFLAVONE (10 OR 50 µL/PLATE), Method: PREINCUBATION) was “inactive; negative” and the mutagenic call [2] was “inactive; negative”. The mutagenic call (Test System: AMES SALMONELLA TYPHIMURIUM, Strain/Indicator: TA100, Metabolic Activation: RAT, LIVER, S-9, PHENOBARBITAL AND 5,6-BENZOFLAVONE (10 OR 50 µL/PLATE), Method: PREINCUBATION) was “inactive; negative”, the mutagenic call [3] was “inactive; negative” and the mutagenic call (Test System: AMES SALMONELLA TYPHIMURIUM, Strain/Indicator: TA1535, Metabolic Activation: RAT, LIVER, S-9, PHENOBARBITAL AND 5,6-BENZOFLAVONE (10 OR 50 µL/PLATE), Method: PREINCUBATION) was “inactive; negative”. The mutagenic call [4] was “inactive; negative”, the mutagenic call (Test System: AMES SALMONELLA TYPHIMURIUM, Strain/Indicator: TA1537, Metabolic Activation: RAT, LIVER, S-9, PHENOBARBITAL AND 5,6-BENZOFLAVONE (10 OR 50 µL/PLATE), Method: PREINCUBATION) was “inactive; negative” and the mutagenic call (Test System: E. COLI, Strain/Indicator: WP2 UVRA, Metabolic Activation: NONE, Method: PREINCUBATION) was “inactive; negative”. For the same molecule, the mutagenic call (Test System: E. COLI, Strain/Indicator: WP2 UVRA, Metabolic Activation: RAT, LIVER, S-9, PHENOBARBITAL AND 5,6-BENZOFLAVONE (10 OR 50 µL/PLATE), Method: PREINCUBATION) was “inactive; negative”.
